Literature values, collected in paper PMC3779694 (Hepatology (Baltimore, Md.), 2011).

Tested on: subjects with a variety of chronic liver diseases, mostly chronic hepatitis C
Details: five subjects with NASH, 14-day regimen; cited from earlier work

C[C@H](NC(=O)C(=O)Nc1ccccc1C(C)(C)C)C(=O)N[C@@H](CC(=O)O)C(=O)COc1c(F)c(F)cc(F)c1F [IDN-6556]
ALT reduction in subjects with NASH: 59%
